Publication PMC11645656, “MRGPRX4 mediates phospho-drug associated pruritus in a humanized mouse model” (Science translational medicine, 2024)
Where “and” joins values, the source holds several entries; their conditions need not be identical. Equal values may be shown once.

What was measured:
MRGPRX4 WT (S83) = MRGPRX4 WT (S83) (Homo sapiens, UniProt Q96LA9, L83S); experiment: PRESTO-Tango β-arrestin recruitment assay, HTLA cells stably expressing WT (S83) MRGPRX4; type: cell-based; set-up: expressed in transfected cells; details: for PRESTO-Tango response (fig. S1), single replicate: HTLA::MRGPRX4; for fig. S7 response (raw signal), concentration-response: WT, single replicate
Description: HTLA cells, a cell line derived from HEK293 and engineered to stably express a tTA-dependent luciferase reporter and a β-arrestin2-TEV fusion gene, were generously provided by Richard Axel's laboratory. HTLA cells were cultured in growth medium containing 2 μg/ml puromycin and 100 μg/ml hygromycin B in 5% CO2 at 37 °C. Stably MRGPRX4-expressing HTLA cells were generated by transfecting pcDNA3.1(+)-Zeo containing MRGPRX4-Tango construct (either with WT or S83L mutant sequence) into HTLA cells with Lipofectamine 3000 and selecting the successful transfected clones with Zeocin.
HTLA cells stably expressing either WT or S83L MRGPRX4 were seeded in PDL-coated 96-well white clear bottom cell culture plates with DMEM containing 10% FBS, at a density of 35,000 cells per well and were allowed to attach to the bottom of the wells overnight. The next day, growth medium was replaced with 100 μl of serum-free medium containing the tested drugs at various concentrations, and the cells were then incubated at 37°C for 24 h. On the following day, media with drug solutions was removed and 50 μl per well of Bright-Glo™ Reagent from Bright-Glo™ Luciferase Assay System (Promega) was loaded. The plate was incubated at room temperature in the dark for 5 min, and the relative luminescence units were measured using the Flexstation-3 instrument with SoftMax®Pro 7.1 software (Molecular Devices). Dose response curves and EC50s were analyzed as described above.
Data are from at least two independent experiments, each performed in
triplicate, and are depicted as mean ± SEM.
arrestin2-TEV fusion gene and a tTA -dependent luciferase reporter.

MRGPRX4 S83L (L83) = MRGPRX4 S83L (L83) (Homo sapiens, UniProt Q96LA9); experiment: Calcium mobilization assay (FLIPR), S83L MRGPRX4 transiently expressed in HEK293T cells; type: cell-based; set-up: expressed in transfected cells; host or cells: HEK293T, transient; details: for Calcium mobilization response (Fig. 4D dose-response): each cell one replicate
Description: Fig. 4. […] Hydrogen bond is shown as cyan dashed lines. […] Data are from three independent experiments, performed in triplicate. (E) pEC50 plots of various agonists toward S83- and L83-MRGPRX4 through calcium mobilization assay. […] Each data point represents an independent experiment, performed in triplicate. The extra sum-of-square F test was used to examine the difference in EC50 values. One-sided t-test was used for nateglinide. *p< 0.05, **p< 0.01 and ***p< 0.001. ns = no statistical significance. Both (D) and (E) are reported as the mean ± SEM. N.D.= no detectable response ≤ 100 μM.
HEK293 cells and MRGPRX4 stably expressed HEK293 cells were seeded in 100 μl culture media on 96-well plates at a density of 40,000 cells per well and incubated overnight. The next day, the media were replaced with a dye-loading solution from the FLIPR Calcium 5 assay kit (Molecular Devices), diluted in Hank's Balanced Salt Solution (HBSS) with 20 mM HEPES, pH 7.4. After 1 h of incubation at 37°C, cells were allowed to recover for 10 min in the dark at room temperature prior to performing intracellular calcium mobilization assay in a Flexstation-3 instrument with SoftMax®Pro 7.1 software (Molecular Devices). Serial concentrations of tested drugs were prepared in HBSS/HEPES solution at 3X concentration. […] Compounds were tested in triplicates and the signals were averaged. Responses were determined by subtracting the minimum signal (at the baseline before adding the drug) from the maximum signal (obtained after drug stimulation). Four-parameter logistic (4PL) curve fit was used to plot the dose-response curves. […] Both dose-response curve fitting and EC50s calculation are computed with GraphPad Prism software (version: 6.o or above).
To generate murine Mrgprs expressing cells, HEK293T cells (ATCC) were seeded on poly-D-lysine coated 96 well plate at 25,000 cells per well one day prior to transfection. HEK293T cells were transiently co-transfected with the mammalian expression plasmids carrying cDNA encoding the murine Mrgpr genes and plasmid inserted with cDNA encoding murine α-subunit of the heterotrimeric G15 protein (Gα15) in triplicates using Lipofectamine LTX reagents (Thermo Scientific). To generate WT, S83L, and alanine mutant MRGPRX4-expressing cells, HEK293T cells were seeded on poly-D-lysine coated 384 well plate at 12,000 cells per well one day prior to transfection. Mammalian expression plasmids pLX304 (vector from Addgene) carrying different MRGPRX4 coding sequences were transiently transfected into HEK293T cells in triplicates with Lipofectamine LTX reagents (Thermo Scientific). Intracellular calcium mobilization assays were performed after one day of transfection. Murine Mrgprs tested include Mrgpra1, Mrgpra2a, Mrgpra2b, Mrgpra3, Mrgpra4, Mrgpra6, Mrgpra9, Mrgpra10, Mrgpra11, Mrgpra12, Mrgpra14, Mrgprb5, Mrgprb6, Mrgprb10, Mrgprb11, and Mrgprc11. WT and mutant MRGPRX4 constructs tested include WT, S83L, R82A, R86A, R95A, W158A, Y250A, and Y254A.

MRGPRX4 WT (S83), sequence (Q96LA9 whole entry L83S, the tested form may be a part): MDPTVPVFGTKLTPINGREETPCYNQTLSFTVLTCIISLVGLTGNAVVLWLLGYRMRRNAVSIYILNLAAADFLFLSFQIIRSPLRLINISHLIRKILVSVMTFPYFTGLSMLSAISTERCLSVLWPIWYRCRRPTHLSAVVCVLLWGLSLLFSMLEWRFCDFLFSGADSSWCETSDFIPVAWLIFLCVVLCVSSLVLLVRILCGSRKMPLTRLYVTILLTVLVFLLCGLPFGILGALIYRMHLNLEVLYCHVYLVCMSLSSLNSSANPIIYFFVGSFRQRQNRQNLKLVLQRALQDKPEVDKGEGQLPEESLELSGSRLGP
MRGPRX4 S83L (L83), sequence (Q96LA9 whole entry, stated change not applied): as the sequence (Q96LA9 whole entry L83S, the tested form may be a part) above, with S83L counted along it

O=C1NC(c2ccccc2)(c2ccccc2)C(=O)N1COP(=O)(O)O [Fosphenytoin] was tested, and the “PRESTO-Tango response (fig. S1), single replicate” value (“PRESTO-Tango response (fig. S1)” below) (MRGPRX4 WT (S83); concentration 1.95e-7 M) was 0.2272 and 0.1839 and 0.1708 and 0.08379 and 0.0626 and 0.06306, the “PRESTO-Tango response (fig. S1)” value (MRGPRX4 WT (S83); concentration 3.91e-7 M) was 0.258 and 0.2297 and 0.204 and 0.07839 and 0.196 and 0.08224 and the “PRESTO-Tango response (fig. S1)” value (MRGPRX4 WT (S83); concentration 7.81e-7 M) was 0.5296 and 0.4272 and 0.4321 and 0.1295 and 0.1604 and 0.1155. The “PRESTO-Tango response (fig. S1)” value (MRGPRX4 WT (S83); concentration 1.56e-6 M) was 1.193 and 1.025 and 0.8155 and 0.2489 and 0.1773 and 0.193, the “PRESTO-Tango response (fig. S1)” value (MRGPRX4 WT (S83); concentration 3.13e-6 M) was 2.598 and 2.433 and 2.514 and 0.4404 and 0.5024 and 0.4535 and the “PRESTO-Tango response (fig. S1)” value (MRGPRX4 WT (S83); concentration 6.25e-6 M) was 5.285 and 4.4353 and 4.292 and 0.9622 and 0.8766 and 0.6627. For the same molecule, the “PRESTO-Tango response (fig. S1)” value (MRGPRX4 WT (S83); concentration 1.25e-5 M) was 7.96 and 6.958 and 5.919 and 1.839 and 1.437 and 1.511, the “PRESTO-Tango response (fig. S1)” value (MRGPRX4 WT (S83); concentration 2.5e-5 M) was 10.7681 and 8.616 and 8.444 and 2.5381 and 2.199 and 2 and the “PRESTO-Tango response (fig. S1)” value (MRGPRX4 WT (S83); concentration 5e-5 M) was 10.7109 and 8.966 and 9.235 and 2.8872 and 2.833 and 2.449. The “PRESTO-Tango response (fig. S1)” value (MRGPRX4 WT (S83); concentration 0.0001 M) was 9.427 and 8.942 and 7.727 and 3.267 and 2.882 and 2.338, the “PRESTO-Tango response (fig. S1)” value (MRGPRX4 WT (S83); concentration 0.0002 M) was 8.979 and 8.052 and 6.854 and 2.562 and 2.3992 and 2.255 and the “fig. S7 response (raw signal), concentration-response” value (“fig. S7 response (raw signal)” below) (MRGPRX4 WT (S83); 1.95e-7 M) was 22724.6 and 18390.5 and 17083.6 and 8378.77 and 6259.78 and 6305.82 and 12291.8 and 11793.8 and 15486. For the same molecule, the “fig. S7 response (raw signal)” value (MRGPRX4 WT (S83); 3.91e-7 M) was 25803.9 and 22965.5 and 20401.3 and 7839.11 and 19602.9 and 8224.03 and 24524.9 and 14963.1 and 12930.4, the “fig. S7 response (raw signal)” value (MRGPRX4 WT (S83); 7.81e-7 M) was 52955.5 and 42723 and 43213.9 and 12950.5 and 16037.6 and 11551.5 and 30971.1 and 30307.2 and 28437.7 and the “fig. S7 response (raw signal)” value (MRGPRX4 WT (S83); 1.56e-6 M) was 119282 and 102488 and 81549.3 and 24892.1 and 17734.6 and 19298.5 and 55751 and 73836.3 and 53034.5. For the same molecule, the “fig. S7 response (raw signal)” value (MRGPRX4 WT (S83); 3.13e-6 M) was 259763 and 243320 and 251368 and 44035.9 and 50243.2 and 45345.4 and 138332 and 159511 and 149195, the “fig. S7 response (raw signal)” value (MRGPRX4 WT (S83); 6.25e-6 M) was 528451 and 443530 and 429228 and 96221.6 and 87656.1 and 66266.7 and 291383 and 234158 and 300136 and the “fig. S7 response (raw signal)” value (MRGPRX4 WT (S83); 1.25e-5 M) was 795954 and 695772 and 591944 and 183925 and 143683 and 151143 and 437126 and 336645 and 507439. For the same molecule, the “fig. S7 response (raw signal)” value (MRGPRX4 WT (S83); 2.5e-5 M) was 1076811 and 861577 and 844388 and 253810 and 219862 and 200044 and 648692 and 547623 and 531932, the “fig. S7 response (raw signal)” value (MRGPRX4 WT (S83); 5e-5 M) was 1071085 and 896572 and 923510 and 288720 and 283304 and 244853 and 667677 and 558954 and 627391 and the “fig. S7 response (raw signal)” value (MRGPRX4 WT (S83); 0.0001 M) was 942731 and 894246 and 772701 and 326668 and 288202 and 233769 and 534832 and 581310 and 583017. The “fig. S7 response (raw signal)” value (MRGPRX4 WT (S83); 0.0002 M) was 897926 and 805208 and 685441 and 256156 and 239920 and 225546 and 318639 and 44935, the “Calcium mobilization response (Fig. 4D dose-response)” value (“Calcium mobilization response” for short) (MRGPRX4 S83L (L83); 5.08e-8 M) was 12.9092 and the “Calcium mobilization response” value (MRGPRX4 S83L (L83); 1.52e-7 M) was 15.1222. The “Calcium mobilization response” value (MRGPRX4 S83L (L83); 4.57e-7 M) was 12.9092 and the EC50 (MRGPRX4 S83L (L83); Fig. 4E, unit not in the head, taken from Concentration (M) of the sheet and pEC50 [M] of Fig. 4E, read-out: EC50s (each well represents individual experiment)) was 1.09e-05 M and 5.99e-05 M and 1.97e-05 M.

With O=C1NC(=O)C(c2ccccc2)(c2ccccc2)N1 [Phenytoin] the “PRESTO-Tango response (fig. S1)” value (MRGPRX4 WT (S83); concentration 4.88281e-6 M) was 0.1853 and 0.188 and 0.1763 and 0.05734 and 0.2683 and 0.2239, the “PRESTO-Tango response (fig. S1)” value (MRGPRX4 WT (S83); concentration 9.76563e-6 M) was 0.2008 and 0.1594 and 0.1746 and 0.2158 and 0.02233 and 0.2967 and the “PRESTO-Tango response (fig. S1)” value (MRGPRX4 WT (S83); concentration 1.95313e-5 M) was 0.2906 and 0.2732 and 0.1192 and 0.006784 and 0.3171 and 0.3592. The “PRESTO-Tango response (fig. S1)” value (MRGPRX4 WT (S83); concentration 3.90625e-5 M) was 0.1519 and 0.183 and 0.2178 and 0.1316 and 0.1884 and 0.2326, the “PRESTO-Tango response (fig. S1)” value (MRGPRX4 WT (S83); concentration 7.8125e-5 M) was 0.1378 and 0.1891 and 0.1982 and 0.232 and 0.1107 and 0.1825 and the “PRESTO-Tango response (fig. S1)” value (MRGPRX4 WT (S83); concentration 0.0003125 M) was 0.1547 and 0.2414 and 0.1479 and 0.03891 and 0.4024 and 0.1026. For the same molecule, the “PRESTO-Tango response (fig. S1)” value (MRGPRX4 WT (S83); concentration 0.000625 M) was 0.1541 and 0.14 and 0.1288 and 0.1405 and 0.1553 and 0.127, the “PRESTO-Tango response (fig. S1)” value (MRGPRX4 WT (S83); concentration 0.0025 M) was 0.1159 and 0.09904 and 0.1083 and 0.002223 and 0.1612 and 0.1598 and the “PRESTO-Tango response (fig. S1)” value (MRGPRX4 WT (S83); concentration 0.005 M) was 0.112 and 0.09938 and 0.09678 and 0.03875 and 0.1733 and 0.09617.
